# Test results reported in patent US20250171437A1 (Agios Pharmaceuticals,Inc., priority 2022, published 2025).
# Biological target: T1, human PAH with the R408W mutation (A375 R408W cells) (Homo sapiens, UniProt P00439, R408W)
# T1 construct: expressed in transfected cells
# T1 sequence (P00439 1-452 R408W): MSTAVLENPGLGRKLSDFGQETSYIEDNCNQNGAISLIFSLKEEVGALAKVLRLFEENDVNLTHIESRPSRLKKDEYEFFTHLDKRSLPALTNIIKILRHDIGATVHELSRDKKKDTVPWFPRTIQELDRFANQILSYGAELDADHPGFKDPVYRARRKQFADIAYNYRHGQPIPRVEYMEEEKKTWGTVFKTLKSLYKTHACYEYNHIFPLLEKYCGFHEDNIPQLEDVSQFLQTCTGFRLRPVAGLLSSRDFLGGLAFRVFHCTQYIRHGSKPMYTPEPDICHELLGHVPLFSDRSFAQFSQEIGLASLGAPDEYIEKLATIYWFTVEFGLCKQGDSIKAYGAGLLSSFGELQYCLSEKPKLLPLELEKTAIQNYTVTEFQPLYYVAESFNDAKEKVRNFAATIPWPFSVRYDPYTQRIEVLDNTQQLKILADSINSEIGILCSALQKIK
# Experiment: Cell Based Phenylalanine Flux Assay
# Conditions: A375 R408W cells; 24 hrs with compound, then 20 μM sepiapterin and 800 μM 13C9,15N-Phenylalanine for 4 hours; 13C-Tyrosine by LC-MS; average where tested multiple times
# Outline: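 A375 cells stably expressing human PAH R408W treated 24 h at 37° C with a 10-point 2-fold dose curve in duplicate, 0.5% DMSO. Then 20 μM sepiapterin and 800 μM 13C9,15N-Phe added for 4 h; 13C-Tyr in media measured by LC-MS to give AC50.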
row,SMILES,AC50 [µM]
1,"O=C(c1ccnn1C(F)(F)F)N1CCc2[nH]cnc2[C@@H]1c1nc2cccc(F)c2o1 [Example 290, (R)-(4-(7-fluorobenzo[d]oxazol-2-yl)-6,7-dihydro-1H-imidazo[4,5-c]pyridin-5(4H)-yl)(1-(trifluoromethyl)-1H-pyrazol-5-yl)methanone]",1 to 5
2,"O=C(c1ocnc1C(F)F)N1CCc2[nH]cnc2[C@@H]1c1nc2cc(Br)ccc2o1 [Example 150, (R)-(4-(5-bromobenzo[d]oxazol-2-yl)-6,7-dihydro-1H-imidazo[4,5-c]pyridin-5(4H)-yl)(4-(difluoromethyl)oxazol-5-yl)methanone]",≤ 0.5
3,"O=C(c1nnc(-c2ccc(F)cc2)o1)N1CCc2[nH]cnc2[C@H]1c1nc2cc(F)ccc2o1 [Example 27, (S)-(4-(5-fluorobenzo[d]oxazol-2-yl)-6,7-dihydro-1H-imidazo[4,5-c]pyridin-5(4H)-yl)(5-(4-fluorophenyl)-1,3,4-oxadiazol-2-yl)methanone]",≤ 0.5
4,"COc1cc(F)cc2nc([C@H]3c4nc[nH]c4CCN3C(=O)c3ocnc3C(F)F)oc12 [Example 717, (R)-(4-(difluoromethyl)oxazol-5-yl)(4-(5-fluoro-7-methoxybenzo[d]oxazol-2-yl)-6,7-dihydro-1H-imidazo[4,5-c]pyridin-5(4H)-yl)methanone]",0.5 to 1
5,"CC1CN(C(=O)c2ocnc2C(F)F)[C@H](c2nc3cccc(F)c3o2)c2nc[nH]c21 (single isomer, unassigned) [Example 803]",≤ 0.5
6,"Cn1ccc(-c2nnc(C(=O)N3CCc4[nH]cnc4[C@@H]3c3nc4cccc(F)c4o3)o2)n1 [Example 338, (R)-(4-(7-fluorobenzo[d]oxazol-2-yl)-6,7-dihydro-1H-imidazo[4,5-c]pyridin-5(4H)-yl)(5-(1-methyl-1H-pyrazol-3-yl)-1,3,4-oxadiazol-2-yl)methanone]",0.5 to 1
7,"CC(C)(O)C1CCN(c2ccc3c(C(=O)N4CCc5[nH]cnc5[C@H]4c4nc5c(F)cccc5o4)cnn3c2)CC1 [Example 507, (S)-(4-(4-fluorobenzo[d]oxazol-2-yl)-6,7-dihydro-1H-imidazo[4,5-c]pyridin-5(4H)-yl)(6-(4-(2-hydroxypropan-2-yl)piperidin-1-yl)pyrazolo[1,5-a]pyridin-3-yl)methanone]",0.5 to 1
8,"O=C(c1oc(C2(O)CC2)nc1C(F)F)N1CCc2[nH]cnc2[C@@H]1c1nc2c(F)cccc2o1 [Example 216, (R)-(4-(difluoromethyl)-2-(1-hydroxycyclopropyl)oxazol-5-yl)(4-(4-fluorobenzo[d]oxazol-2-yl)-6,7-dihydro-1H-imidazo[4,5-c]pyridin-5(4H)-yl)methanone]",1 to 5
9,"O=C(c1ccnn1C(F)(F)F)N1CCc2[nH]cnc2[C@H]1c1nc2ccc(F)cc2o1 [Example 287, (S)-(4-(6-fluorobenzo[d]oxazol-2-yl)-6,7-dihydro-1H-imidazo[4,5-c]pyridin-5(4H)-yl)(1-(trifluoromethyl)-1H-pyrazol-5-yl)methanone]",0.5 to 1
10,"O=C(c1cnco1)N1CCc2[nH]cnc2[C@H]1c1nc2ccccc2o1 [Example 547, (S)-(4-(benzo[d]oxazol-2-yl)-6,7-dihydro-1H-imidazo[4,5-c]pyridin-5(4H)-yl)(oxazol-5-yl)methanone]",0.5 to 1
11,"C[C@H](O)c1nc(C(F)F)c(C(=O)N2CCc3[nH]cnc3[C@H]2c2nc3cc(F)ccc3o2)o1 [Example 157, (4-(difluoromethyl)-2-((S)-1-hydroxyethyl)oxazol-5-yl)((S)-4-(5-fluorobenzo[d]oxazol-2-yl)-6,7-dihydro-1H-imidazo[4,5-c]pyridin-5(4H)-yl)methanone]",0.5 to 1

# Same assay, conditions: A375 cells expressing R408W PAH; 24 hrs with compound, then 20 μM sepiapterin and 800 μM 13C9,15N-Phenylalanine for 4 hours; 13C-Tyrosine by LC-MS; average where tested multiple times
row,SMILES,AC50 [µM]
1,Cc1ccc2oc(C3c4nc[nH]c4CCN3C(=O)c3cnco3)nc2c1 (stereo not shown) [listing 1 of 2 here],1 to 5
2,COc1ccc2oc(C3c4nc[nH]c4CCN3C(=O)c3cnc(C(C)(C)O)o3)nc2c1 (stereo not shown),1 to 5
3,Cc1ccc2oc(C3c4nc[nH]c4CCN3C(=O)c3cnco3)nc2c1 (stereo not shown) [listing 2 of 2 here],≥ 5
4,Cn1ncnc1C(=O)N1CCc2[nH]cnc2C1c1nc2ccc(F)cc2o1 (stereo not shown),1 to 5
5,CC(C)(O)C1CCN(c2ccc3c(C(=O)N4CCc5[nH]cnc5C4c4nc5cc(F)ccc5o4)cnn3c2)CC1 (stereo not shown),≥ 5
